The values below come from US20020061599A1, “Method of identifying ligands of biological target molecules” (priority 1999, published 2002).

One may read the IC50 as the concentration that inhibits the measured activity by half. The term Hill coefficient denotes the slope factor of the fitted curve.

One assay addresses T1, Factor VIIa (FVIIa) (Homo sapiens, UniProt P08709).
T1 construct: Factor VIIa, i.e. the active form of the FVII protease involved in the coagulation cascade; purchased American Diagnostica
T1 sequence (P08709 213-466 limits assumed): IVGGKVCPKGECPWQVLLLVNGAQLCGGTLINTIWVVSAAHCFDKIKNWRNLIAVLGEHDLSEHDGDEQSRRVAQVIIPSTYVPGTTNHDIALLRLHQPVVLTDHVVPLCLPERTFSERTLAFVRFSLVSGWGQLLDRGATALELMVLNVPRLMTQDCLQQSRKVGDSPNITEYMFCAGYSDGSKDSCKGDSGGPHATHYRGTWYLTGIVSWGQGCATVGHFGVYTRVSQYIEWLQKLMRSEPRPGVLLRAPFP
T1 sequence (P08709 61-212 partner limits assumed): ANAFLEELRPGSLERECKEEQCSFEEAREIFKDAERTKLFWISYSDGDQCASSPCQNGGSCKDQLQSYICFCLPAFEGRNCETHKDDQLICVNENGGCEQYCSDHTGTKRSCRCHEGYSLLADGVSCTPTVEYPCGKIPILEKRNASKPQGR
The assay can be described thus: Amidolytic activity of Factor VIIa. The assay is classed as biochemical. Conditions: for effect on the activity of FVIIa: chelator without metal-ions. The method, then: Method—The amidolytic activity of Factor VIIa (FVIIa) was measured by the incubation of 2.5 μl FVIIa (100 nM final concentration, obtained from American Diagnostica), 2.5 μl ligand and 4 μl substrate (10 mM, S2288 obtained from Chromogenix) in 42.5 μl buffer (50 mM Hepes pH 7.4, 1 mM CaCl2, 100 mM NaCl, 0,02% Tween 20). The assay was performed in 96-well plates (Costar). Incubation was performed at room temperature for five hours with absorbance read every 10 minutes.

A further assay deals with T2, galanin R1 receptor (Homo sapiens, UniProt P47211).
T2 construct: expressed in transfected cells; host or cells: COS-7
T2 sequence (P47211 1-349): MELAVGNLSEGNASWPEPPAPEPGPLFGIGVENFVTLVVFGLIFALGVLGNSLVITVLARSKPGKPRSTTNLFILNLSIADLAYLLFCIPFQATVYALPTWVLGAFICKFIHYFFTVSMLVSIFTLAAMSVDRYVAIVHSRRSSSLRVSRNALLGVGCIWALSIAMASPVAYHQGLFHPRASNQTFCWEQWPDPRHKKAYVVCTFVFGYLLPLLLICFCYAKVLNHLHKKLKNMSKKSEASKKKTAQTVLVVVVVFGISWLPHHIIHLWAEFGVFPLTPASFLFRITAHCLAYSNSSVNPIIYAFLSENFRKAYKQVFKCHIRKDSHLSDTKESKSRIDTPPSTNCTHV
The assay can be described thus: Whole cell competition binding with [125I]-galanin in COS-7 cells expressing galanin receptor. To be noted: for binding affinity compared with the basic chelator 1,10-phenanthroline: chelator in complex with Cu(II). From the text: Whole cell competition binding experiment with COS-7 cells expressing the wild type and mutant forms of the galanin receptor using [^125I]-galanin as radioligand.
Methods—The galanin receptor cDNA was introduced into COS-7 cells by the standard calcium phosphate transfection method. The cells were transferred and seeded in multi-well plates for assay one day following the transfection and the number of cells plated per well was adjusted for each individual (wild type and mutant) construct aiming at the binding of 5 to 10% of the radioligand present in the assay. Two days post-transfection the cells were assayed for the presence of [^125]-Galanin binding activity. Radioligand was bound in buffer composed of 25 mM Hepes (pH 7.4), 2.5 mM MgCl2, […] Baciacin and displaced in a dose dependent manner by unlabelled ligand. The assay was performed in triplicate for 3 hours at 4° C., and terminated by the addition of lysis buffer (48% urea, 2% NP-40 in 3M acetic acid). The concentration of radioligand in the assay corresponds to a final concentration of 20 pM.

The next assay addresses T3, dopamine transporter (Homo sapiens, UniProt Q01959).
T3 construct: expressed in transfected cells; host or cells: COS-7
The assay can be described thus: [3H]-dopamine uptake in COS-7 cells expressing wild-type dopamine transporter. The assay is classed as cell-based. To be noted: for effect on dopamine transport: chelator by itself, without metal-ion. As for the experimental part:
Competition analysis of uptake of [^3H]-dopamine in whole COS-7 cells expressing the dopamine transporter.
(§1) Methods—The dopamine transporter cDNA was introduced into COS-7 by the standard calcium phosphate transfection method. Two days post-transfection the cells were assayed for [^3H]-Dopamine uptake activity. The uptake assays was performed in 25 mM Hepes pH 7.4, 120 mM NaCl, 5 mM KCl, 1.2 mM CaCl2, 1.2 mM MgSO4, 1 mM ascorbic acid and 5 mM D-glucose and in the presence of various concentrations of unlabelled dopamine as indicated in the figures. The assay was performed in triplicate at 37° C. for 10 minutes, and terminated by washing with buffer twice and the addition of lysis buffer (48% urea, 2% NP-40 in 3M acetic acid).

In assay [1] the target is T4, leukotriene LTB4 receptor (Homo sapiens, UniProt Q15722).
T4 construct: expressed in transfected cells; host or cells: COS-7
T4 sequence (Q15722 whole entry): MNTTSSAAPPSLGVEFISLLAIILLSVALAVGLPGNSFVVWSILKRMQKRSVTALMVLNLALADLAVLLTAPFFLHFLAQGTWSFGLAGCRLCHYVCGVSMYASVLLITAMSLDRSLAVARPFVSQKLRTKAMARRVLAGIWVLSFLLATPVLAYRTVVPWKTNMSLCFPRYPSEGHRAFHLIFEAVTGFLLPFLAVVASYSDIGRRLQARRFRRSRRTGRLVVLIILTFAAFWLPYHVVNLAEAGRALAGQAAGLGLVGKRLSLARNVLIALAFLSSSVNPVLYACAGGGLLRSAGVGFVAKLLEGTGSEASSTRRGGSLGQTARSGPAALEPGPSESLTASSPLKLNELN
The assay can be described thus: Whole cell competition binding with [3H]-LTB4 in COS-7 cells expressing wild type LTB4 receptor. From the text:
Whole cell competition binding experiment with COS-7 cells expressing the wild type and mutant variants of the leukotriene LTB4 receptor using [^3H]-LTB4 as the radioligand.
Methods—The leukotriene LTB4 receptor cDNA was cloned by PCR from a leukocyte cDNA library, built into an eukaryotic expression vector and introduced into COS-7 cells by a standard calcium phosphate transfection method. One day after transfection the cells were transferred and seeded in multi-well plates for assay. The number of cells plated per well was chosen so as to obtain 5 to 10% binding of the radioligand added. Two days after transfection the cells were assayed for the presence of [^3H]-LTB4 binding activity. […] The assay was performed in duplicate for 3 hours at 4° C., and stopped by washing twice in buffer. Cell associated, receptor bound radioligand was determined by the addition of lysis buffer (48% urea, 2% NP-40 in 3M acetic acid).

In assay [2] the test system is metal-ion site engineered tachykinin NK1 receptors. The experiment in a line: Competition binding with [125I]-Substance P, library of inter-helical metal-ion sites engineered into NK1 receptor. Conditions: sites between TM-III and -V and between TM-V and -VI. As for the experimental part: COS-7 cells expressing various engineered forms of the NK1 receptor were analyzed by competition binding using [^125I]-Substance P as radioligand

The target of assay [3] is T5, NK1 receptor [HisV:05,HisVI:24] (Homo sapiens, UniProt P25103, Y272H).
T5 construct: expressed in transfected cells; host or cells: COS-7
T5 sequence (P25103 whole entry Y272H): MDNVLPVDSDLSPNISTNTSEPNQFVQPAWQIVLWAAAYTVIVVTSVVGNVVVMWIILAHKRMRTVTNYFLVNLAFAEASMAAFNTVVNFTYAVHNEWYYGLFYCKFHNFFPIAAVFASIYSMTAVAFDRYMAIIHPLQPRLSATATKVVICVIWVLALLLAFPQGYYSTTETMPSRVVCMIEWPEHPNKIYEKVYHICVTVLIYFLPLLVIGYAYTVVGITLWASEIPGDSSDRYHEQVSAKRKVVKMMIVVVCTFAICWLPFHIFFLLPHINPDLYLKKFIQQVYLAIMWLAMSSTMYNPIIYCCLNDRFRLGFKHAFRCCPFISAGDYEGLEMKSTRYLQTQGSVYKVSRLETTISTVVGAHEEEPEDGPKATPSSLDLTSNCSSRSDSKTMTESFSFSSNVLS
The assay can be described thus: Competition binding with [125I]-Substance P, NK1 receptor [HisV:05,HisVI:24] site. Conditions: all in complex with Zn(II). As for the experimental part: (§2) Binding of [^125I]-Substance P was analysed in COS-7 cells expressing NK1 receptor which have been engineered to bind the zinc metal-ion. Ligand binding is presented in competiton with the zinc metal-ion, the zinc-1,10-phenanthroline complex and with other zinc-chelator complexes as indicated. For structures of the chelators, see Appendix.

Assay [4] has as its target T6, NK1 receptor [HisIII:08;CysVII:06] (Homo sapiens, UniProt P25103, M291C/P112H).
T6 construct: expressed in transfected cells; host or cells: COS-7
The experiment in a line: Competition binding with [125I]-Substance P, NK1 receptor [HisIII:08;CysVII:06] site. Conditions: all in complex with Zn(II). The method, then:
as §2

The target of assay [5] is T7, [H193K] dopamine transporter (Homo sapiens, UniProt Q01959, H193K).
T7 construct: expressed in transfected cells; host or cells: COS-7
T7 sequence (Q01959 whole entry H193K): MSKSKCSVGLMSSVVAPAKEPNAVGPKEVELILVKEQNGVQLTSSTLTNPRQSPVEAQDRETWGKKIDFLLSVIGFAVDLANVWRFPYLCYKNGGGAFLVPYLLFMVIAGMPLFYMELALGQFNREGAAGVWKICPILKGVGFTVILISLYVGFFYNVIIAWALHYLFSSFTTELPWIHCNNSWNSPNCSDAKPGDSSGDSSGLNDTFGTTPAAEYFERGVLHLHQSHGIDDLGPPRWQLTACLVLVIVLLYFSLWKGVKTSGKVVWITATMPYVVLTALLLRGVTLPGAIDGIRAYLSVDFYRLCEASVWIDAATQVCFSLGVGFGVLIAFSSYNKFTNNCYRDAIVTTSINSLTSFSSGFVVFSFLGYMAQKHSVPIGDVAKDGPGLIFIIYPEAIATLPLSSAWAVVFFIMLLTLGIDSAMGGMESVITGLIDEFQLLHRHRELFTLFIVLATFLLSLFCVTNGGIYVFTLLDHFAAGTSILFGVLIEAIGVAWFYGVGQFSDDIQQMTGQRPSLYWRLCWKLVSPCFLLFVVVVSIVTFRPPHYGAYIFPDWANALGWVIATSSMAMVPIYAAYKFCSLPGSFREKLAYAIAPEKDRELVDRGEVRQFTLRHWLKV
The experiment in a line: [3H]-dopamine uptake in COS-7 cells, [H193K] mutant dopamine transporter. The assay is classed as cell-based. To be noted: mutational substitution of His193; chelator in complex with Zn(II). The method, then:
Panel B. Dopamine uptake analysis in a mutant form of the dopamine transporter, [H193K], in which binding of the metal-ion complex has been eliminated (Noregaard et al. EMBO J. (1998) 17: 4266-4273).
as §1

Entries after “also recorded” stand apart in the source; their conditions may differ.

T3 sequence (Q01959 whole entry): as the sequence (Q01959 whole entry H193K) above, with K193H counted along it
T6 sequence (P25103 whole entry P112H/M291C): as the sequence (P25103 whole entry Y272H) above, with P112H, H272Y, M291C counted along it

On to `c1cnc2c(c1)ccc1cccnc12` [1,10-phenanthroline, reference compound], for which the “effect on the activity of FVIIa” value at Factor VIIa (FVIIa) is listed as “no effect”. The “effect on [125I]-galanin binding” value on galanin R1 receptor (chelator alone, without metal-ion) is recorded as “no effect”.

`c1ccc(-c2ccccn2)nc1` [2,2′-bipyridine, reference compound]: the “effect on the activity of FVIIa” value at Factor VIIa (FVIIa) is reported as “no effect”. Besides, the “effect on dopamine transport” value at dopamine transporter was “no effect”.

As to `[Cl][Cu][Cl]` [Cu(II), reference compound], the 50% inhibitory concentration (IC50) in assay [1] (wild type receptor, whole COS-7 cells, read-out: IC50, displacement of [3H]-LTB4) turned out to be 70 µM. Besides, the “increase in affinity versus wild-type” value in assay [2] is “no increase or just a marginal increase in affinity”. The Hill coefficient on galanin R1 receptor (displacement of [125I]-galanin) is reported as −4.

As for `OCc1ccc2ccc3ccc(CO)nc3c2n1` [compound 133, 2,9-dimethanol-1,10-phenanthroline], the “binding affinity compared with the basic chelator 1,10-phenanthroline” value on galanin R1 receptor was “decrease the affinity”.

With `c1ccc(-c2cc3cccnc3c3ncccc23)cc1` [compound 134, 5-phenyl-1,10-phenanthroline], the “binding of the metal-ion chelator complex compared with 1,10-phenanthroline” value in assay [1] (chelator in complex with Cu(II)) is “entirely eliminated the binding; also recorded: totally inactive”. Also, the “potency compared with phenanthroline” value in assay [3] is listed as “only slightly more potent”. The “potency, fold more potent than phenanthroline” value in assay [4] worked out at 7 fold. In addition, on galanin R1 receptor, the “binding affinity compared with the basic chelator 1,10-phenanthroline” value was “bound like 1,10′-phenanthroline”.

On to `ClC(Cl)(Cl)c1ccc2ccc3ccc(C(Cl)(Cl)Cl)nc3c2n1` [compound 135, 2,9-bis(trichloromethyl)-1,10-phenanthroline], for which the “potency of inhibiting FVIIa compared with the basic chelator complex” value on Factor VIIa (FVIIa) (chelator in complex with Zn(II)) was “increased potency”. In assay [3], the “binding, fold better than 1,10-phenanthroline” value came out at 6 fold. Besides, in assay [4], the “binding compared with 1,10′-phenanthroline” value is “almost similar”.

With `O=C1C(=O)c2cccnc2-c2ncccc21` [compound 175, 1,10-phenanthroline-5,6-dione], the “binding, fold better than 1,10-phenanthroline” value in assay [3] was determined as 10 fold. Moreover, in assay [4], the “binding compared with 1,10′-phenanthroline” value is reported as “almost similar”.

On to `Cc1cc2cccnc2c2ncccc12` [compound 176, 5-methyl-1,10-phenanthroline], for which the “binding affinity compared with the basic chelator 1,10-phenanthroline” value on galanin R1 receptor was “increase the binding affinity”.

As for `CC(=O)O/N=C(\N)c1ccccn1` [compound 210, 2-pyridylamidoxime, O-acetyl], the “effect of the metal-ion chelator complex on dopamine transport” value in assay [5] was “eliminated”. The “effect on dopamine transport” value at dopamine transporter is on record as “does not affect”. Further, the “potency of blocking dopamine transport, fold higher than free Zn(II)” value on dopamine transporter (chelator in complex with Zn(II), mono-component) was “approx 10 fold”.
